Columns and labels:
[1] = target: T1, Laconic (LldR from Escherichia coli between mTFP and Venus) (Escherichia coli, UniProt P0ACL7); test: FRET ratio mTFP/Venus, purified sensor; type: binding; conditions: 0.25, 1 or 10 mM pyruvate with lactate dose-response; effect by interference with lactate; intracellular buffer pH 7.0
T1 construct: variant 04
T1 sequence (P0ACL7 1-258): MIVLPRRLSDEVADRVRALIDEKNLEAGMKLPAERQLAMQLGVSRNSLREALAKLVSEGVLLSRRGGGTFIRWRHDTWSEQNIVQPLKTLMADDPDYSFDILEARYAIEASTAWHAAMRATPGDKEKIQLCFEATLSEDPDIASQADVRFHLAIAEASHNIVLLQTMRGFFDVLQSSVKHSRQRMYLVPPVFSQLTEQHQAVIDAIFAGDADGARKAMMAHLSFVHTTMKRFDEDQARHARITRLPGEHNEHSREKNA

[2] = target: T1, Laconic (LldR from Escherichia coli between mTFP and Venus); test: FRET ratio mTFP/Venus, purified sensor; type: binding; conditions: 1 mM citrate without lactate; intracellular buffer pH 7.0

Row | SMILES | FRET ratio mTFP/Venus, purified sensor [1] | % increase of FRET ratio at 1 mM [2] [%]
1 | CC(=O)C(=O)O [pyruvate] | at high concentrations, pyruvate blocked the effect of low lactate | –
2 | O=C(O)CC(O)(CC(=O)O)C(=O)O [citrate] | – | 6

Reference: paper PMC3582500 (PLoS ONE, 2013)
